This is an account of results in patent publication US20140148400A1, “CARBONIC ANHYDRASE INHIBITORS WITH […] ACTIVITY” (METASIGNAL THERAPEUTICS INC., priority 2010, published 2014).

Molecules are shown by their SMILES. Where two headings read alike, the source gives them in different places.

Series [1] concerns the target hCA II (Homo sapiens, UniProt P00918). In words: In vitro CA inhibition assay, hCA II. The class given is biochemical.
Series [2] has as its system human CA isoforms. To be noted: background statement; cited from earlier work.
Series [3] deals with hCA I (Homo sapiens, UniProt P00915). In words: In vitro CA inhibition assay, hCA I. To be noted: unit from table title. In kind it is biochemical.
Sequence of hCA I (P00915 whole entry): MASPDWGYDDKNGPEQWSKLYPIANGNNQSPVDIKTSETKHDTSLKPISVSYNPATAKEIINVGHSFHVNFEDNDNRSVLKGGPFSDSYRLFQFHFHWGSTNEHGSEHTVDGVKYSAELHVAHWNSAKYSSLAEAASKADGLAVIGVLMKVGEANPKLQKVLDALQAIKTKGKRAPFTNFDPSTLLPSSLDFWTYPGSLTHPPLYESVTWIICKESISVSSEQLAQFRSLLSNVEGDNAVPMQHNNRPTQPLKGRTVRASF
Series [4] has as its target hCA IX (Homo sapiens, UniProt Q16790). In words: In vitro CA inhibition assay, hCA IX. To be noted: cells with nM printed beside the value. The class given is biochemical.
Series [5] deals with 4T1 mammary tumor cells. Conditions: 2×10^5 4T1 cells i.v.; daily i.p. injection for 6 days from 24 hours post inoculation; imaged 24 hours after final dose.
In series [6] the test system is 4T1 primary tumors. Put plainly: Growth of orthotopically implanted 4T1 primary tumors. The class given is in vivo, female BALB/c mice. To be noted: 1×10^6 cells/mouse orthotopic; tumors established 14 days; daily i.p. for 14 days.
Where [7] appears, read: unit from table title, read-out: hCA II inhibition data in KI.

As usually defined, the Ki is a dissociation constant, usually derived from enzyme kinetics or from competition with a known ligand. Broadly, the melting point is the temperature of the solid-liquid transition.

Take `C=CCOc1ccc2oc(=S)ccc2c1` [MST-240, 6-(Allyloxy)-2H-chromene-2-thione]: in series [1] (setting [7]), the Ki is > 200 µM. In the case of `COc1cc2oc(=O)ccc2cc1[C@@H](O)CC(C)C` [6-(1S-hydroxy-3-methylbutyl)-7-methoxy-2H-chromen-2-one], the “inhibition of all investigated human CA isoforms” value in series [2] is on record as “nonselective, potent inhibitors”.

`Oc1ccc2oc(=S)ccc2c1` [MST-233, 6-Hydroxy-2H-chromene-2-thione]: the Ki in series [1] (setting [7]) was > 200 µM.

`Cc1cc(=O)oc2cc(OC3OC(CO)C(O)C(O)C3O)ccc12` (single isomer, unassigned) [MST-202, 4-methylumbellifer-7-yl- -D-glucopyranoside]: the Ki in series [3] was 1 µM; in series [1] (setting [7]), > 100 µM. In the case of `CC(C)(C)[Si](C)(C)Oc1ccc2ccc(=O)oc2c1` [MST-231, 7-(tert-Butyldimethylsilyloxy)-2H-chromen-2-one], in series [1], the Ki is > 200 µM. `O=c1ccc2cc(OCc3cn(-c4ccccc4Cl)nn3)ccc2o1` [MST-225, 6-((1-(2-chlorophenyl)-1H-1,2,3-triazol-4-yl)methoxy)-2H-chromen-2-one] displayed a melting point of 164 to 166 °C.

Turning to `CC(C)(C)[Si](C)(C)Oc1ccc2oc(=O)ccc2c1` [MST-230, 6-(tert-Butyldimethylsilyloxy)-2H-chromen-2-one], in series [1] (setting [7]), the Ki was > 200 µM. With `O=c1ccc2ccccc2o1` [unsubstituted coumarin, coumarin], the “inhibition of all investigated human CA isoforms” value in series [2] is “nonselective, potent inhibitors”. The compound `Cc1cc(=O)oc2cc(OCCn3c([N+](=O)[O-])cnc3C)ccc12` [MST-248, 7-O-[2-(2-methyl-5-nitro-imidazol-1-yl)ethyl]-4-methylcoumarine] showed a melting point of 238 to 240 °C.

Compound `C#CCOc1ccc2ccc(=S)oc2c1` [MST-217, 7-(prop-2-ynyloxy)-2H-chromene-2-thione] came in with a melting point of 97 to 101 °C. Regarding `Cc1cc(=O)oc2cc(OC3OC(CO)C(O)C(O)C3O)ccc12` (single isomer, unassigned) [MST-203, 4-methylumbellifer-7-yl-1-D-galactopyranoside], the Ki in series [3] stood at 0.59 µM; in series [1] (setting [7]), 77 µM; in series [4] it was 93 nM. On to `Cc1cc(=O)oc2cc(O[C@H]3O[C@H](CO)[C@@H](O)[C@H](O)[C@@H]3O)ccc12` [MST-204, 4-methylumbellifer-7-yl-α-D-mannopyranoside], for which the “formation of metastases by 4T1 mammary tumor cells (tumor-derived bioluminescence)” value in series [5] was “reduced the formation of metastases”. Regarding `Cc1cc(=O)oc2cc(OC3OC(C)C(O)C(O)C3O)ccc12` [MST-205, 4-methylumbellifer-7-yl- -L-rhamnopyranoside], the Ki in series [3] is > 100 µM; in series [1] (setting [7]), > 100 µM; in series [4], 201 nM. The “growth of 4T1 primary tumors (caliper-based measurement)” value in series [6] is recorded as “Attenuates the Growth of 4T1 Primary Tumors”. Besides, the “formation of metastases by 4T1 mammary tumor cells (tumor-derived bioluminescence)” value in series [5] is recorded as “inhibits the formation of metastases”. For `Cc1cc(=O)oc2ccc(OCCn3c([N+](=O)[O-])cnc3C)cc12` [MST-249, 6-O-[2-(2-methyl-5-nitro-imidazol-1-yl)ethyl]-4-methylcoumarine], the melting point was in the range of 190 to 191 °C.

Regarding `N#Cc1cc2ccc(O)cc2oc1=O` [MST-247], in series [3], the Ki is 104 µM.

On to `Cc1cc(=O)oc2cc(OC3OCC(O)C(O)C3O)ccc12` [MST-201, 4-methylumbellifer-7-yl- -D-xylopyranoside], for which the melting point is 223 °C.
